Measurements: patent publication US9113629B2, “4-amino-6-(4-substituted-phenyl)-picolinates and 6-amino-2-(4-substituted-phenyl)-pyrimidine-4-carboxylates and their use as herbicides” (DOW AGROSCIENCES LLC, priority 2013, dated 2015)
Like-named read-outs stand apart in the source and are kept apart here.

Legend:
[1] = system: Key Broadleaf Weed and Crop Species; experiment: Post-emergent Test II herbicidal activity (Table 5); assay type: in vivo; conditions: post-emergence, 336 h, 14 days after application; for pest or weed control at 70 g/ha: application rate 70 g ai/ha; for pest or weed control at 140 g/ha: application rate 140 g ai/ha
In short: (§1)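 Test species were raised 7–21 d under greenhouse conditions until reaching the first or second true leaf, sprayed with formulated compound at 187 L/ha, and kept subirrigated to avoid wash-off. Fourteen days later, damage was rated visually on a 0–100% scale against untreated plants.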

[2] = system: Key Grass and Sedge Weeds as well as Grass Crops; experiment: Post-emergent Test II herbicidal activity (Table 6); assay type: in vivo; conditions: post-emergence, 336 h; for pest or weed control at 70 g/ha: 70 g ai/ha; for pest or weed control at 140 g/ha: 140 g ai/ha
In short: as §1

[3] = ABUTH: velvetleaf (Abutilon theophrasti), read-out: Visual Growth Reduction (%) 14 Days After Application, ABUTH
[4] = AMARE: redroot pigweed (Amaranthus retroflexus), read-out: Visual Growth Reduction (%) 14 Days After Application, AMARE
[5] = BRSNN: oilseed-rape, canola (Brassica napus), read-out: Visual Growth Reduction (%) 14 Days After Application, BRSNN
[6] = CHEAL: lambsquarters (Chenopodium album), read-out: Visual Growth Reduction (%) 14 Days After Application, CHEAL
[7] = EPHHL: wild poinsettia (Euphorbia heterophylla), read-out: Visual Growth Reduction (%) 14 Days After Application, EPHHL
[8] = HELAN: sunflower (Helianthus annuus), read-out: Visual Growth Reduction (%) 14 Days After Application, HELAN
[9] = VIOTR: wild pansy (Viola tricolor), read-out: Visual Growth Reduction (%) 14 Days After Application, VIOTR
[10] = CYPES: yellow nutsedge (Cyperus esculentus), read-out: Visual Growth Reduction (%) 14 Days After Application, CYPES
[11] = DIGSA: crabgrass (Digitaria sanguinalis), read-out: Visual Growth Reduction (%) 14 Days After Application, DIGSA
[12] = ECHCG: barnyardgrass (Echinochloa crus-galli), read-out: Visual Growth Reduction (%) 14 Days After Application, ECHCG
[13] = ORYSA: rice (Oryza sativa), crop, read-out: Visual Growth Reduction (%) 14 Days After Application, ORYSA
[14] = SETFA: giant foxtail (Setaria faberi), read-out: Visual Growth Reduction (%) 14 Days After Application, SETFA
[15] = SORVU: grain sorghum (Sorghum vulgare), read-out: Visual Growth Reduction (%) 14 Days After Application, SORVU
[16] = TRZSS (wheat, Triticum aestivum), crop, read-out: Visual Growth Reduction (%) 14 Days After Application, TRZSS
[17] = ZEAMX: maize, corn (Zea mays), crop, read-out: Visual Growth Reduction (%) 14 Days After Application, ZEAMX

With `Nc1cc(-c2ccc(Br)c(F)c2F)nc(C(=O)O)c1Cl` [Compound 91] the pest or weed control at 70 g/ha [1, 3] was 85 to 94%, the pest or weed control at 140 g/ha [1, 3] was 95 to 100% and the pest or weed control at 70 g/ha [1, 4] was 95 to 100%. The pest or weed control at 140 g/ha [1, 4] was 95 to 100%, the pest or weed control at 70 g/ha [1, 5] was 75 to 84% and the pest or weed control at 140 g/ha [1, 5] was 85 to 94%. For the same molecule, the pest or weed control at 70 g/ha [1, 6] was 85 to 94%, the pest or weed control at 140 g/ha [1, 6] was 85 to 94% and the pest or weed control at 70 g/ha [1, 7] was 95 to 100%. For the same molecule, the pest or weed control at 140 g/ha [1, 7] was 95 to 100%, the pest or weed control at 70 g/ha [1, 8] was 85 to 94% and the pest or weed control at 140 g/ha [1, 8] was 85 to 94%. For the same molecule, the pest or weed control at 70 g/ha [1, 9] was 95 to 100%, the pest or weed control at 140 g/ha [1, 9] was 95 to 100% and the pest or weed control at 70 g/ha [2, 10] was 95 to 100%. It also gave a pest or weed control at 140 g/ha [2, 10] of 95 to 100%, a pest or weed control at 70 g/ha [2, 11] of 85 to 94% and a pest or weed control at 140 g/ha [2, 11] of 85 to 94%. The pest or weed control at 70 g/ha [2, 12] was 95 to 100%, the pest or weed control at 140 g/ha [2, 12] was 95 to 100% and the pest or weed control at 70 g/ha [2, 13] was 0 to 29%. For the same molecule, the pest or weed control at 140 g/ha [2, 13] was 0 to 29%, the pest or weed control at 70 g/ha [2, 14] was 75 to 84% and the pest or weed control at 140 g/ha [2, 14] was 85 to 94%. The pest or weed control at 70 g/ha [2, 15] was 75 to 84%, the pest or weed control at 140 g/ha [2, 15] was 75 to 84% and the pest or weed control at 70 g/ha [2, 16] was 45 to 59%. The pest or weed control at 140 g/ha [2, 16] was 45 to 59%, the pest or weed control at 70 g/ha [2, 17] was 85 to 94% and the pest or weed control at 140 g/ha [2, 17] was 85 to 94%. The melting point was 173 to 175 °C.

`COC(=O)c1nc(-c2ccc(I)c(F)c2F)c(F)c(N)c1Cl` [Compound 99] gave a pest or weed control at 70 g/ha [1, 3] of 95 to 100%, a pest or weed control at 140 g/ha [1, 3] of 95 to 100% and a pest or weed control at 70 g/ha [1, 4] of 95 to 100%. It also gave a pest or weed control at 140 g/ha [1, 4] of 95 to 100%, a pest or weed control at 70 g/ha [1, 5] of 95 to 100% and a pest or weed control at 140 g/ha [1, 5] of 95 to 100%. It also gave a pest or weed control at 70 g/ha [1, 6] of 95 to 100%, a pest or weed control at 140 g/ha [1, 6] of 95 to 100% and a pest or weed control at 70 g/ha [1, 7] of 95 to 100%. It also gave a pest or weed control at 140 g/ha [1, 7] of 95 to 100%, a pest or weed control at 70 g/ha [1, 8] of 95 to 100% and a pest or weed control at 140 g/ha [1, 8] of 95 to 100%. For the same molecule, the pest or weed control at 70 g/ha [1, 9] was 95 to 100%, the pest or weed control at 140 g/ha [1, 9] was 95 to 100% and the pest or weed control at 140 g/ha [2, 10] was 95 to 100%. The pest or weed control at 70 g/ha [2, 11] was 75 to 84%, the pest or weed control at 140 g/ha [2, 11] was 85 to 94% and the pest or weed control at 70 g/ha [2, 12] was 95 to 100%. The pest or weed control at 140 g/ha [2, 12] was 95 to 100%, the pest or weed control at 70 g/ha [2, 13] was 0 to 29% and the pest or weed control at 140 g/ha [2, 13] was 0 to 29%. The pest or weed control at 70 g/ha [2, 14] was 95 to 100%, the pest or weed control at 140 g/ha [2, 14] was 95 to 100% and the pest or weed control at 70 g/ha [2, 15] was 95 to 100%. For the same molecule, the pest or weed control at 140 g/ha [2, 15] was 95 to 100%, the pest or weed control at 70 g/ha [2, 16] was 45 to 59% and the pest or weed control at 140 g/ha [2, 16] was 60 to 74%. The pest or weed control at 70 g/ha [2, 17] was 95 to 100%, the pest or weed control at 140 g/ha [2, 17] was 95 to 100% and the melting point was 168 to 170 °C.

Work on `COC(=O)c1nc(-c2ccc(OC(F)F)cc2F)c(F)c(N)c1Cl` [Compound 104] yielded a pest or weed control at 70 g/ha [1, 3] of 45 to 59%, a pest or weed control at 140 g/ha [1, 3] of 45 to 59% and a pest or weed control at 70 g/ha [1, 4] of 0 to 29%. For the same molecule, the pest or weed control at 140 g/ha [1, 4] was 0 to 29%, the pest or weed control at 70 g/ha [1, 5] was 0 to 29% and the pest or weed control at 140 g/ha [1, 5] was 0 to 29%. It also gave a pest or weed control at 70 g/ha [1, 6] of 0 to 29%, a pest or weed control at 140 g/ha [1, 6] of 0 to 29% and a pest or weed control at 70 g/ha [1, 7] of 75 to 84%. For the same molecule, the pest or weed control at 140 g/ha [1, 7] was 85 to 94%, the pest or weed control at 70 g/ha [1, 8] was 75 to 84% and the pest or weed control at 140 g/ha [1, 8] was 75 to 84%. For the same molecule, the pest or weed control at 70 g/ha [1, 9] was 0 to 29%, the pest or weed control at 140 g/ha [1, 9] was 0 to 29% and the pest or weed control at 70 g/ha [2, 10] was 0 to 29%. It also gave a pest or weed control at 140 g/ha [2, 10] of 45 to 59%, a pest or weed control at 70 g/ha [2, 11] of 0 to 29% and a pest or weed control at 140 g/ha [2, 11] of 0 to 29%. For the same molecule, the pest or weed control at 70 g/ha [2, 12] was 0 to 29%, the pest or weed control at 140 g/ha [2, 12] was 0 to 29% and the pest or weed control at 70 g/ha [2, 13] was 0 to 29%. The pest or weed control at 140 g/ha [2, 13] was 0 to 29%, the pest or weed control at 70 g/ha [2, 14] was 0 to 29% and the pest or weed control at 140 g/ha [2, 14] was 0 to 29%. For the same molecule, the pest or weed control at 70 g/ha [2, 15] was 0 to 29%, the pest or weed control at 140 g/ha [2, 15] was 45 to 59% and the pest or weed control at 70 g/ha [2, 16] was 0 to 29%. The pest or weed control at 140 g/ha [2, 16] was 0 to 29%, the pest or weed control at 70 g/ha [2, 17] was 45 to 59% and the pest or weed control at 140 g/ha [2, 17] was 95 to 100%. The melting point was 127 to 129 °C.
